Experimental data: the supplement of paper PMC10307832

Tests used:
Experiment in all cases: relative viability (nuclei count vs DMSO), 5 days (fraction); higher = more cells survive
BX 795 = compound: O=C(NCCCNc1nc(Nc2cccc(NC(=O)N3CCCC3)c2)ncc1I)c1cccs1 [BX 795]
Procedure, shortened: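 Only plates meeting two conditions passed: control CV below 25% and at least one doubling. Lung cancer cell lines, kept overnight at 37 °C in 1536-well plates, were pinned with five library-drug doses (not always all listed) √10 apart on vehicle-anchored plates and grown 5 days without medium change. A one-step fix, permeabilisation and Hoechst stain preceded 4× imaging and MetaXpress nuclear counting. Viability equals treated-well nuclei divided by vehicle-well nuclei, as the median over plates.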

BX 795 + Bortezomib = compound: O=C(NCCCNc1nc(Nc2cccc(NC(=O)N3CCCC3)c2)ncc1I)c1cccs1 [BX 795] + CC(C)C[C@H](NC(=O)[C@H](Cc1ccccc1)NC(=O)c1cnccn1)B(O)O [Bortezomib] (partner 0.002 µM)
Procedure, shortened: (§1)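 Lung cancer cell lines, seeded in 1536-well plates, were treated the following day by pin tool with a single drug or with five library-drug doses (not always all listed) in √10 steps on top of a fixed anchor-drug dose. Cells were fixed and nuclei stained in one step after 5 days, and nuclei were counted. Relative viability is the nuclei count for treated wells divided by that for vehicle wells, reported as medians of duplicate plates.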

BX 795 + Navitoclax = compound: O=C(NCCCNc1nc(Nc2cccc(NC(=O)N3CCCC3)c2)ncc1I)c1cccs1 [BX 795] + CC1(C)CCC(c2ccc(Cl)cc2)=C(CN2CCN(c3ccc(C(=O)NS(=O)(=O)c4ccc(N[C@H](CCN5CCOCC5)CSc5ccccc5)c(S(=O)(=O)C(F)(F)F)c4)cc3)CC2)C1 [Navitoclax] (partner 0.5 µM)
Procedure, shortened: as §1

BX 795 + Foretinib = compound: O=C(NCCCNc1nc(Nc2cccc(NC(=O)N3CCCC3)c2)ncc1I)c1cccs1 [BX 795] + COc1cc2c(Oc3ccc(NC(=O)C4(C(=O)Nc5ccc(F)cc5)CC4)cc3F)ccnc2cc1OCCCN1CCOCC1 [Foretinib] (partner 0.25 µM)
Procedure, shortened: as §1

BX 795 + Lapatinib = compound: O=C(NCCCNc1nc(Nc2cccc(NC(=O)N3CCCC3)c2)ncc1I)c1cccs1 [BX 795] + CS(=O)(=O)CCNCc1ccc(-c2ccc3ncnc(Nc4ccc(OCc5cccc(F)c5)c(Cl)c4)c3c2)o1 [Lapatinib] (partner 2 µM)
Procedure, shortened: as §1

BX 795 + Pictilisib = compound: O=C(NCCCNc1nc(Nc2cccc(NC(=O)N3CCCC3)c2)ncc1I)c1cccs1 [BX 795] + CS(=O)(=O)N1CCN(Cc2cc3nc(-c4cccc5[nH]ncc45)nc(N4CCOCC4)c3s2)CC1 [Pictilisib] (partner 1 µM)
Procedure, shortened: as §1

BX 795 + Crizotinib = compound: O=C(NCCCNc1nc(Nc2cccc(NC(=O)N3CCCC3)c2)ncc1I)c1cccs1 [BX 795] + C[C@@H](Oc1cc(-c2cnn(C3CCNCC3)c2)cnc1N)c1c(Cl)ccc(F)c1Cl [Crizotinib] (partner 1 µM)
Procedure, shortened: as §1

BX 795 + Linsitinib = compound: O=C(NCCCNc1nc(Nc2cccc(NC(=O)N3CCCC3)c2)ncc1I)c1cccs1 [BX 795] + C[C@]1(O)C[C@@H](c2nc(-c3ccc4ccc(-c5ccccc5)nc4c3)c3c(N)nccn32)C1 [Linsitinib] (partner 1 µM)
Procedure, shortened: as §1

BX 795 + Alpelisib = compound: O=C(NCCCNc1nc(Nc2cccc(NC(=O)N3CCCC3)c2)ncc1I)c1cccs1 [BX 795] + Cc1nc(NC(=O)N2CCC[C@H]2C(N)=O)sc1-c1ccnc(C(C)(C)C(F)(F)F)c1 [Alpelisib] (partner 2 µM)
Procedure, shortened: as §1

BX 795 + Olaparib = compound: O=C(NCCCNc1nc(Nc2cccc(NC(=O)N3CCCC3)c2)ncc1I)c1cccs1 [BX 795] + O=C(c1cc(Cc2n[nH]c(=O)c3ccccc23)ccc1F)N1CCN(C(=O)C2CC2)CC1 [Olaparib] (partner 8 µM)
Procedure, shortened: as §1

| Cell Line | relative viability (BX 795; 0.04 µM) | relative viability (BX 795; 0.1265 µM) | relative viability (BX 795; 0.4 µM) | relative viability (BX 795; 1.265 µM) | relative viability (BX 795 + Bortezomib; first compound 0.04 µM) | relative viability (BX 795 + Bortezomib; first compound 0.1265 µM) | relative viability (BX 795 + Bortezomib; first compound 0.4 µM) | relative viability (BX 795 + Bortezomib; first compound 1.265 µM) | relative viability (BX 795 + Navitoclax; first compound 0.04 µM) | relative viability (BX 795 + Navitoclax; first compound 0.1265 µM) | relative viability (BX 795 + Navitoclax; first compound 0.4 µM) | relative viability (BX 795 + Navitoclax; first compound 1.265 µM) | relative viability (BX 795 + Foretinib; first compound 0.04 µM) | relative viability (BX 795 + Foretinib; first compound 0.1265 µM) | relative viability (BX 795 + Foretinib; first compound 0.4 µM) | relative viability (BX 795 + Foretinib; first compound 1.265 µM) | relative viability (BX 795 + Lapatinib; first compound 0.04 µM) | relative viability (BX 795 + Lapatinib; first compound 0.1265 µM) | relative viability (BX 795 + Lapatinib; first compound 0.4 µM) | relative viability (BX 795 + Lapatinib; first compound 1.265 µM) | relative viability (BX 795 + Pictilisib; first compound 0.04 µM) | relative viability (BX 795 + Pictilisib; first compound 0.1265 µM) | relative viability (BX 795 + Pictilisib; first compound 0.4 µM) | relative viability (BX 795 + Pictilisib; first compound 1.265 µM) | relative viability (BX 795 + Crizotinib; first compound 0.04 µM) | relative viability (BX 795 + Crizotinib; first compound 0.1265 µM) | relative viability (BX 795 + Crizotinib; first compound 0.4 µM) | relative viability (BX 795 + Crizotinib; first compound 1.265 µM) | relative viability (BX 795 + Linsitinib; first compound 0.04 µM) | relative viability (BX 795 + Linsitinib; first compound 0.1265 µM) | relative viability (BX 795 + Linsitinib; first compound 0.4 µM) | relative viability (BX 795 + Linsitinib; first compound 1.265 µM) | relative viability (BX 795 + Alpelisib; first compound 0.04 µM) | relative viability (BX 795 + Alpelisib; first compound 0.1265 µM) | relative viability (BX 795 + Alpelisib; first compound 0.4 µM) | relative viability (BX 795 + Alpelisib; first compound 1.265 µM) | relative viability (BX 795 + Olaparib; first compound 0.04 µM) | relative viability (BX 795 + Olaparib; first compound 0.1265 µM) | relative viability (BX 795 + Olaparib; first compound 0.4 µM) | relative viability (BX 795 + Olaparib; first compound 1.265 µM) |
| --- | --- | --- | --- | --- | --- | --- | --- | --- | --- | --- | --- | --- | --- | --- | --- | --- | --- | --- | --- | --- | --- | --- | --- | --- | --- | --- | --- | --- | --- | --- | --- | --- | --- | --- | --- | --- | --- | --- | --- | --- |
| Calu-6 | 0.98 | 1 | 0.716 | 0.665 | 1.04 | 1.02 | 0.831 | 0.525 | 0.825 | 0.874 | 0.727 | 0.389 | 0.91 | 0.84 | 0.557 | 0.555 | 1.02 | 1.1 | 0.843 | 0.552 | 0.896 | 0.966 | 0.518 | 0.505 | 0.728 | 0.777 | 0.556 | 0.249 | 0.883 | 1.06 | 0.533 | 0.726 | 1.1 | 0.919 | 0.585 | 0.509 | 0.559 | 0.591 | 0.283 | 0.336 |
| EBC-1 | 1.02 | 1.01 | 0.931 | 0.543 | 0.571 | 0.458 | 0.551 | 0.269 | 0.508 | 0.438 | 0.401 | 0.222 | 0.104 | 0.0912 | 0.0982 | 0.0866 | 0.217 | 0.189 | 0.231 | 0.188 | 0.419 | 0.351 | 0.262 | 0.157 | 0.199 | 0.186 | 0.184 | 0.172 | 0.957 | 0.864 | 0.85 | 0.439 | 0.874 | 0.763 | 0.628 | 0.34 | 0.794 | 0.707 | 0.765 | 0.355 |
